Assay results: patent US20240238242A1, “EGCG buccal tablet and use thereof” (priority 2023, published 2024)
Values joined by “and” are separate entries in the source; they are usually repeats but may differ in a detail not shown here. Equal values may be shown once. Read-outs that look alike come from different tables or passages of the source.

Test system: Influenza A virus neuraminidase inhibitor-resistant strain (ZX-1109)
Format: cell-based
Settings: for average inactivation efficiency against virus: ZX1109 virus, three experiments; for residual virus titer of EGCG+virus group (Karber method) / inactivation efficiency against the virus: ZX-1109 virus; for inactivation efficiency against the virus: single experiment

O=C(O[C@@H]1Cc2c(O)cc(O)cc2O[C@@H]1c1cc(O)c(O)c(O)c1)c1cc(O)c(O)c(O)c1 [EGCG, Epigallocatechin gallate]
CPE test (virus replication in the cell wells) (1 mM EGCG + ZX-1109 virus, 1 minute, third experiment, dilution factor 10^6, wells 1-10): − and +
CPE test (virus replication in the cell wells) (1 mM EGCG + ZX-1109 virus, 1 minute, third experiment, dilution factor 10^7, wells 1-10): −
CPE test (virus replication in the cell wells) (1 mM EGCG + ZX-1109 virus, 1 minute, third experiment, dilution factor 10^8, wells 1-10): −
CPE test (virus replication in the cell wells) (1 mM EGCG + ZX-1109 virus, 5 minute, first experiment, dilution factor 10^2, wells 1-10): +
CPE test (virus replication in the cell wells) (1 mM EGCG + ZX-1109 virus, 5 minute, first experiment, dilution factor 10^3, wells 1-10): +
CPE test (virus replication in the cell wells) (1 mM EGCG + ZX-1109 virus, 5 minute, first experiment, dilution factor 10^4, wells 1-10): +
CPE test (virus replication in the cell wells) (1 mM EGCG + ZX-1109 virus, 5 minute, first experiment, dilution factor 10^5, wells 1-10): + and −
CPE test (virus replication in the cell wells) (1 mM EGCG + ZX-1109 virus, 5 minute, first experiment, dilution factor 10^6, wells 1-10): − and +
CPE test (virus replication in the cell wells) (1 mM EGCG + ZX-1109 virus, 5 minute, first experiment, dilution factor 10^7, wells 1-10): − and +
CPE test (virus replication in the cell wells) (1 mM EGCG + ZX-1109 virus, 5 minute, first experiment, dilution factor 10^8, wells 1-10): + and −
CPE test (virus replication in the cell wells) (1 mM EGCG + ZX-1109 virus, 5 minute, second experiment, dilution factor 10^2, wells 1-10): +
CPE test (virus replication in the cell wells) (1 mM EGCG + ZX-1109 virus, 5 minute, second experiment, dilution factor 10^3, wells 1-10): +
CPE test (virus replication in the cell wells) (1 mM EGCG + ZX-1109 virus, 5 minute, second experiment, dilution factor 10^4, wells 1-10): +
CPE test (virus replication in the cell wells) (1 mM EGCG + ZX-1109 virus, 5 minute, second experiment, dilution factor 10^5, wells 1-10): + and −
CPE test (virus replication in the cell wells) (1 mM EGCG + ZX-1109 virus, 5 minute, second experiment, dilution factor 10^6, wells 1-10): − and +
CPE test (virus replication in the cell wells) (1 mM EGCG + ZX-1109 virus, 5 minute, second experiment, dilution factor 10^7, wells 1-10): − and +
CPE test (virus replication in the cell wells) (1 mM EGCG + ZX-1109 virus, 5 minute, second experiment, dilution factor 10^8, wells 1-10): − and +
CPE test per cell well (1 mM EGCG + ZX-1109 virus, 5 minute, third experiment, dilution factor 10^2, wells 1-10): +
CPE test per cell well (1 mM EGCG + ZX-1109 virus, 5 minute, third experiment, dilution factor 10^3, wells 1-10): +
CPE test per cell well (1 mM EGCG + ZX-1109 virus, 5 minute, third experiment, dilution factor 10^4, wells 1-10): +
CPE test per cell well (1 mM EGCG + ZX-1109 virus, 5 minute, third experiment, dilution factor 10^5, wells 1-10): − and +
CPE test per cell well (1 mM EGCG + ZX-1109 virus, 5 minute, third experiment, dilution factor 10^6, wells 1-10): + and −
CPE test per cell well (1 mM EGCG + ZX-1109 virus, 5 minute, third experiment, dilution factor 10^7, wells 1-10): − and +
CPE test per cell well (1 mM EGCG + ZX-1109 virus, 5 minute, third experiment, dilution factor 10^8, wells 1-10): + and −
average inactivation efficiency against virus (1 mM EGCG, 1 minute): 89.97%
average inactivation efficiency against virus (1 mM EGCG, 5 minutes): 97.59%
residual virus titer of EGCG+virus group (Karber method) (1 mM EGCG, 1 minute): 10^5 TCID50/50 μL
inactivation efficiency against the virus (1 mM EGCG, 1 minute): 93.69% and 92.06% and 84.15%
residual virus titer of EGCG+virus group (Karber method) (1 mM EGCG, 5 minutes): 10^6 TCID50/50 μL
inactivation efficiency against the virus (1 mM EGCG, 5 minutes): 96.02% and 98.74% and 98.00%
CPE test per cell well (5 mM EGCG + ZX1109 virus, 1 minute, second experiment, dilution factor 10^3, wells 1-10): +
CPE test per cell well (5 mM EGCG + ZX1109 virus, 1 minute, second experiment, dilution factor 10^4, wells 1-10): + and −
CPE test per cell well (5 mM EGCG + ZX1109 virus, 1 minute, second experiment, dilution factor 10^5, wells 1-10): − and +
CPE test per cell well (5 mM EGCG + ZX1109 virus, 1 minute, second experiment, dilution factor 10^6, wells 1-10): −
CPE test per cell well (5 mM EGCG + ZX1109 virus, 1 minute, second experiment, dilution factor 10^7, wells 1-10): −
CPE test per cell well (5 mM EGCG + ZX1109 virus, 1 minute, second experiment, dilution factor 10^8, wells 1-10): −
CPE test per cell well (5 mM EGCG + ZX-1109 virus, 1 minute, first experiment, dilution factor 10^2, wells 1-10): +
CPE test per cell well (5 mM EGCG + ZX-1109 virus, 1 minute, first experiment, dilution factor 10^3, wells 1-10): +
CPE test per cell well (5 mM EGCG + ZX-1109 virus, 1 minute, first experiment, dilution factor 10^4, wells 1-10): + and −
CPE test per cell well (5 mM EGCG + ZX-1109 virus, 1 minute, first experiment, dilution factor 10^5, wells 1-10): + and −
CPE test per cell well (5 mM EGCG + ZX-1109 virus, 1 minute, first experiment, dilution factor 10^6, wells 1-10): −
CPE test per cell well (5 mM EGCG + ZX-1109 virus, 1 minute, first experiment, dilution factor 10^7, wells 1-10): −
CPE test per cell well (5 mM EGCG + ZX-1109 virus, 1 minute, first experiment, dilution factor 10^8, wells 1-10): −
CPE test (virus replication in the cell wells) (5 mM EGCG + ZX-1109 virus, 1 minute, third experiment, dilution factor 10^2, wells 1-10): +
CPE test (virus replication in the cell wells) (5 mM EGCG + ZX-1109 virus, 1 minute, third experiment, dilution factor 10^3, wells 1-10): +
CPE test (virus replication in the cell wells) (5 mM EGCG + ZX-1109 virus, 1 minute, third experiment, dilution factor 10^4, wells 1-10): + and −
CPE test (virus replication in the cell wells) (5 mM EGCG + ZX-1109 virus, 1 minute, third experiment, dilution factor 10^5, wells 1-10): −
CPE test (virus replication in the cell wells) (5 mM EGCG + ZX-1109 virus, 1 minute, third experiment, dilution factor 10^6, wells 1-10): −
CPE test (virus replication in the cell wells) (5 mM EGCG + ZX-1109 virus, 1 minute, third experiment, dilution factor 10^7, wells 1-10): −
CPE test (virus replication in the cell wells) (5 mM EGCG + ZX-1109 virus, 1 minute, third experiment, dilution factor 10^8, wells 1-10): −
CPE test (virus replication in the cell wells) (5 mM EGCG + ZX-1109 virus, 5 minute, first experiment, dilution factor 10^3, wells 1-10): +
CPE test (virus replication in the cell wells) (5 mM EGCG + ZX-1109 virus, 5 minute, first experiment, dilution factor 10^4, wells 1-10): + and −
CPE test (virus replication in the cell wells) (5 mM EGCG + ZX-1109 virus, 5 minute, first experiment, dilution factor 10^5, wells 1-10): − and +
CPE test (virus replication in the cell wells) (5 mM EGCG + ZX-1109 virus, 5 minute, first experiment, dilution factor 10^6, wells 1-10): − and +
CPE test (virus replication in the cell wells) (5 mM EGCG + ZX-1109 virus, 5 minute, first experiment, dilution factor 10^7, wells 1-10): − and +
CPE test (virus replication in the cell wells) (5 mM EGCG + ZX-1109 virus, 5 minute, first experiment, dilution factor 10^8, wells 1-10): −
CPE test (virus replication in the cell wells) (5 mM EGCG + ZX-1109 virus, 5 minute, second experiment, dilution factor 10^3, wells 1-10): +
CPE test (virus replication in the cell wells) (5 mM EGCG + ZX-1109 virus, 5 minute, second experiment, dilution factor 10^4, wells 1-10): − and +
CPE test (virus replication in the cell wells) (5 mM EGCG + ZX-1109 virus, 5 minute, second experiment, dilution factor 10^5, wells 1-10): − and +
CPE test (virus replication in the cell wells) (5 mM EGCG + ZX-1109 virus, 5 minute, second experiment, dilution factor 10^6, wells 1-10): −
CPE test (virus replication in the cell wells) (5 mM EGCG + ZX-1109 virus, 5 minute, second experiment, dilution factor 10^7, wells 1-10): −
CPE test (virus replication in the cell wells) (5 mM EGCG + ZX-1109 virus, 5 minute, second experiment, dilution factor 10^8, wells 1-10): −
CPE test per cell well (5 mM EGCG + ZX-1109 virus, 5 minute, third experiment, dilution factor 10^3, wells 1-10): +
CPE test per cell well (5 mM EGCG + ZX-1109 virus, 5 minute, third experiment, dilution factor 10^4, wells 1-10): − and +
CPE test per cell well (5 mM EGCG + ZX-1109 virus, 5 minute, third experiment, dilution factor 10^5, wells 1-10): −
CPE test per cell well (5 mM EGCG + ZX-1109 virus, 5 minute, third experiment, dilution factor 10^6, wells 1-10): −
CPE test per cell well (5 mM EGCG + ZX-1109 virus, 5 minute, third experiment, dilution factor 10^7, wells 1-10): −
CPE test per cell well (5 mM EGCG + ZX-1109 virus, 5 minute, third experiment, dilution factor 10^8, wells 1-10): −
average inactivation efficiency against virus (5 mM EGCG, 1 minute): 93.73%
average inactivation efficiency against virus (5 mM EGCG, 5 minutes): 99.86%
inactivation efficiency against the virus (5 mM EGCG, 1 minute): 90.00% and 93.69% and 97.49%
inactivation efficiency against the virus (5 mM EGCG, 5 minutes): 99.60% and 99.99%
